Reference: PubChem BioAssay (NCI)
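Five compound concentrations were applied to cells in 96-well plates for 48 hours; endpoints were derived by simple linear interpolation of the resulting dose-response curve. TGI is the concentration that stops growth completely.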

Assays:
Assay in all cases: NCI-60 cell line screen, 48 h
OVCAR-8 ovarian = test system: OVCAR-8 ovarian
MALME-3M melanoma = test system: MALME-3M melanoma
NCI-H23 lung = test system: NCI-H23 lung
SK-MEL-2 melanoma = test system: SK-MEL-2 melanoma
MOLT-4 leukemia = test system: MOLT-4 leukemia
RPMI-8226 leukemia = test system: RPMI-8226 leukemia
M14 melanoma = test system: M14 melanoma
LOX IMVI melanoma = test system: LOX IMVI melanoma
HOP-62 NSCLC = test system: HOP-62 NSCLC
MCF7 breast = test system: MCF7 breast

SMILES	TGI (OVCAR-8 ovarian) [µM]	TGI (MALME-3M melanoma) [µM]	TGI (NCI-H23 lung) [µM]	TGI (SK-MEL-2 melanoma) [µM]	TGI (MOLT-4 leukemia) [µM]	TGI (RPMI-8226 leukemia) [µM]	TGI (M14 melanoma) [µM]	TGI (LOX IMVI melanoma) [µM]	TGI (HOP-62 NSCLC) [µM]	TGI (MCF7 breast) [µM]
CCOC1CCN(C(=O)c2ccccc2)O1 (stereo not given)	> 10	> 10	> 10	> 10	> 10	> 10	> 10	> 10	> 10	> 10
CC(=O)c1c(O)n(-c2ccc(C)cc2)c(=O)c2c(N)n[nH]c12	> 100	> 100	> 100	> 100	> 100	> 100	> 100	> 100	–	> 100
O=c1[nH]nc(-c2ccc(F)cc2)cc1-c1ccccc1	> 100	> 100	> 100	> 100	> 100	> 100	> 100	> 100	–	> 100
CC(CC[C@@]1(O)OC2C[C@H]3[C@@H]4CC[C@H]5CC(OC6OC(CO)C(OC7OC(CO)C(O)C(OC8OCC(O)C(O)C8O)C7OC7OC(CO)C(O)C(O)C7O)C(O)C6O)[C@H](O)CC5(C)[C@H]4CCC3(C)C2[C@@H]1C)COC1OC(CO)C(O)C(O)C1O (stereo not given in full)	> 50	> 50	15.9	31.6	> 50	> 50	> 50	48.8	17.9	> 50
CCC(=O)Nc1ccc(NCC(=O)Nc2ccc(OC)cc2)cc1	42.8	49.5	41.8	38.5	> 100	90.5	> 100	39.3	11.6	33.3
O=C1/C(=C/c2ccccc2)CCCc2ccccc21	45.5	42	34.2	29.9	48.1	> 100	41.4	34.9	36.3	41.6
CCOc1cc(-c2nc3cc(F)ccc3s2)ccc1O	31.2	29.8	33.8	31.5	–	29.6	33.4	33.4	–	23
C=CCCC(=O)C(=[N+]=[N-])C(=O)CCC(=O)c1ccccc1	> 10	> 10	> 10	> 10	> 10	> 10	> 10	> 10	> 10	> 10
COc1ccc(C2C3=C(COC3=O)OC(C)(C)Oc3cc4c(cc32)OCO4)cc1OC (stereo not given)	> 100	> 100	> 100	> 100	> 100	> 100	> 80.3	> 100	> 100	> 90.9
[N-]=[N+]=Nc1ccc2c(c1)Sc1ccccc1N2CCCCN1CCN(C(=O)CCNC(=O)Cc2ccc(C(=O)c3ccccc3)cc2)CC1	> 100	10.7	> 44	8.97	5.86	4.87	11.8	5.17	> 100	5.78
COC(=O)CNC(=O)CCC(C)[C@H]1CCC2C3C(C[C@H](OC(C)=O)[C@@]21C)[C@@]1(C)CCC2(C[C@H]1C[C@H]3OC(C)=O)OOC1(CCCCC1)OO2 (stereo not given in full)	4.16	6.22	3.64	6.49	11.9	3.91	8.28	–	1.73	13.9
O=[N+]([O-])C(C(Cl)=C(Cl)Cl)=C(n1cncn1)n1cncn1	44.2	31.2	54.2	> 100	> 100	51.5	> 74.8	44.9	> 100	> 100
CN(C)N=Nc1ccc2[nH]c(=O)[nH]c2c1	> 100	> 100	> 100	> 100	–	> 100	> 100	> 100	> 100	> 100
C1=NCCOCCN=Cc2ccc(cc2)OCc2cccc(n2)COc2ccc1cc2	> 100	> 100	> 100	> 100	> 100	> 100	> 100	–	> 100	> 100
COc1cccc2cc(C(=O)NC34CC5CC(CC(C5)C3)C4)c(=N)oc12	> 50.6	> 100	> 100	> 100	23.2	> 77.9	> 100	> 100	> 100	> 100
N#Cc1c(-c2ccc([N+](=O)[O-])cc2)cc(-c2ccc(Nc3ccnc4cc(Cl)ccc34)cc2)nc1N	> 23.3	39.9	65.6	43.5	5.4	15	41.9	2.9	29.7	4.73
CC(C)=C[C@@H]1O[C@H](O)[C@@H]([C@H]2CC[C@@]3(C)[C@@H]4CC[C@H]5C(C)(C)C(=O)CC[C@@]56C[C@@]46CC[C@]23C)[C@@H]1O	30.4	37.7	32.9	42.2	32.4	12.7	57.3	–	62.2	25
CC12CCC(CC1(Cl)Cl)C2 (stereo not given)	> 100	> 100	> 100	> 100	> 100	> 100	> 100	> 100	> 100	> 100
O=C1C(Cl)=C(NCCF)C(=O)c2ncccc21	4.55	2.98	3.51	4.23	3.72	> 10	3.15	2.26	4.39	3.54
CCOC(=O)c1nc2cc(C(F)(F)F)ccc2nc1Oc1ccc(F)cc1	> 100	> 100	–	> 100	> 100	> 100	> 100	> 100	–	> 100

SMILES	TGI (OVCAR-8 ovarian) [µM]	TGI (MALME-3M melanoma) [µM]	TGI (NCI-H23 lung) [µM]	TGI (SK-MEL-2 melanoma) [µM]	TGI (MOLT-4 leukemia) [µM]	TGI (RPMI-8226 leukemia) [µM]	TGI (M14 melanoma) [µM]	TGI (LOX IMVI melanoma) [µM]	TGI (HOP-62 NSCLC) [µM]	TGI (MCF7 breast) [µM]
Nc1c2cc3ccc2nc2ccc(cc12)OCCOCCOCCOCCOCCOCCO3	> 10	> 10	> 10	> 10	> 10	> 10	> 10	> 10	> 10	> 10
C#CC(O)/C=C/C(O)CCCC(O)CC#CC(O)C#CCCCCC(O)/C=C/CCCC(O)/C=C/CCCCCCCCCCCCCC(O)C(O)C#CC(=O)O (stereo not given)	> 25	> 25	> 25	> 25	> 25	> 25	> 25	> 25	> 25	> 25
C#C[C@]1(O)CC[C@H]2[C@@H]3CCC4=C/C(=N/OC(=O)c5cccc6c(=O)c7ccccc7[nH]c56)CCC4[C@H]3CC[C@@]21CC (stereo not given in full)	> 100	> 100	> 100	> 100	> 69.2	10.6	> 100	> 56.6	> 100	> 93.5
CCN(CC)CCN1C(=O)C(=O)N(c2cccc3ccccc23)C1=O	> 10	> 10	> 10	> 10	> 10	> 10	> 10	> 10	> 10	> 10
COc1cc(S(=O)(=O)Nc2ccc(-c3csc(N4C(=O)C(Cl)C4c4cccs4)n3)cc2)ccc1Cl (stereo not given)	> 100	> 100	> 100	> 100	> 100	> 100	> 100	5.15	> 100	> 100
C=C(C)C(=O)OC1C[C@H](COC(C)=O)C2CC=C(CO)C2C2OC(=O)C(=C)[C@H]12 (stereo not given in full)	> 100	44.3	> 100	> 100	45.7	> 100	31	> 100	> 100	> 100
COc1ccc(/C=C/C(=O)Oc2ccccc2OC)cc1	> 71.9	> 100	> 100	> 95.3	3.44	5.22	> 100	> 70.7	> 62.4	> 100
C[C@H]1O[C@@H](C(C)(C)C)OC(=O)[C@@H]1C(OC(=O)c1ccccc1)c1cccc2ccccc12 (stereo not given in full)	> 100	> 100	> 100	> 100	> 100	> 100	> 100	> 100	> 100	> 100
O=C(Nc1ccc2cc3ccccc3cc2c1)c1cc2c(cc1Cl)Sc1nccn1S2(=O)=O	> 100	> 100	> 100	> 100	> 100	> 100	> 100	> 100	> 100	> 100
O=c1c2c3c(sc2nc2n1N=CN(c1ccc(F)cc1)C2)CCCC3	> 100	> 100	> 100	> 100	> 100	> 100	> 100	> 100	> 100	> 100
C=CC[C@]1(C2=NC(C)(C)CO2)c2ccccc2-c2ccccc2[C@H]1C(C)=O	> 52.8	21	> 45.3	15.4	50	33.5	21.7	25.8	32.7	24.8
C=CCn1c(-c2ccc(Cl)cc2)csc1=Nc1ccccc1OC	> 100	> 100	> 100	> 100	14.9	> 100	> 87.9	> 100	> 100	> 100
Cc1ccc(SCC(OCn2cnc3c(Cl)nc(N)nc32)[C@H](C)F)cc1 (stereo not given in full)	> 100	> 100	> 100	> 100	> 100	> 100	> 100	> 100	> 100	> 100
Cc1cc2nnc(C(N)=O)c(N)c2cc1C	> 100	> 100	> 100	> 100	> 100	> 100	> 100	> 100	> 100	> 100
CCOC(=O)C1(C(=O)OCC)C=C(c2ccccc2)N(C2OC(COC(C)=O)C(OC(C)=O)C(OC(C)=O)C2OC(C)=O)C1=S (stereo not given)	> 100	> 100	> 100	> 100	> 100	44.3	> 100	> 100	> 100	> 100
NS(=O)(=O)c1nnc(NS(=O)(=O)c2ccc([N+](=O)[O-])cc2)s1	> 100	> 100	> 100	> 100	> 100	> 100	> 100	> 100	> 100	> 100
C[n+]1cn(-c2nc3ccccc3nc2[N-]S(=O)(=O)c2ccccc2)c2ccccc21	> 100	> 100	> 100	> 100	> 100	> 100	> 100	> 100	> 100	> 100
Cc1ccc(S(=O)(=O)NC(=O)NC(CCC(N)=O)C(=O)O)cc1 (stereo not given)	> 100	> 100	> 100	> 100	> 100	> 100	> 100	> 100	> 100	> 100
COc1ccc2c(c1OC)C(=O)O[C@@H]2[C@H]1c2c(cc3c(c2OC)OCO3)CCN1C	> 100	79.3	> 100	> 100	> 100	> 100	> 100	> 100	> 100	> 100
CN(C)c1ccc(/C=C(\NC(=O)c2ccccc2)C(=O)NC(Cc2c[nH]c3ccccc23)C(=O)O)cc1 (stereo not given)	> 100	> 100	> 100	> 100	> 100	> 100	> 100	> 100	> 100	> 100
